Consider two compounds from US10238670B2, “9-aminomethyl minocycline compounds and methods of use thereof in urinary tract infection (UTI) treatment” (Paratek Pharmaceuticals, Inc., priority 2016, dated 2019).

Where two headings read alike, the source gives them in different places.

The test system of series [1] is E. coli (ATCC 25922) biofilm. The series can be described thus: MBEC assay, inhibition of biofilm formation. The series is classed as cell-based, Escherichia coli. The protocol:
(§1) The MBEC™ assay (formerly the Calgary biofilm device; Innovotech Inc., Canada) is a well-established high throughput assay for assessment of anti-biofilm activity of test agents in a 96-well format. Within this assay, the biofilm is formed on the plastic pegs of the plate lid. After inoculated media is introduced to the wells of the 96-well plate, the plate is placed in a shaking incubator to generate the necessary shear force for biofilm growth on the pegs. Following a suitable incubation time, the individual biofilms can be treated with varying concentrations of test agents (challenge plate). After the desired treatment time, the remaining biofilm-associated bacteria are retrieved from the pegs through sonication (recovery plate). Serial dilution and/or plating of the recovered bacterial suspension allow for the quantification of test agents' efficacy against pre-formed biofilms. Additionally, readout of the challenge plate from the biofilm treatment can be used to determine MIC values of test agents. The absence of growth in the recovery plate indicates complete biofilm eradication and the lowest concentration of a test agent that achieves this is designated as the minimum biofilm eradication concentration (MBEC). The MBEC™ assay is also amenable to assess potential synergistic effects of combination treatments, as well as efficacy of test agents in inhibiting or inducing biofilm formation.
The MBEC™ plates were inoculated with either 10^5 CFU/mL (low inoculum) or 10^7 CFU/mL (high inoculum) of stationary phase E. coli (ATCC 25922) with simultaneous addition of antibiotics to evaluate the progression of biofilm formation under antibiotic challenge. After 24 hour incubation, the bacteria were recovered and enumerated (as above). FIG. 6. […] FIG. 7.

For series [2], the system named is E. coli (ATCC 25922) biofilm. The series can be described thus: MBEC assay, activity against established 24 hour biofilm. The series is classed as cell-based, Escherichia coli. Conditions: 24 hours challenge. The protocol:
as §1, with “formation. The MBEC™ plates were inoculated with 10^7 CFU/mL of stationary phase E. coli (ATCC 25922) and incubated for 24 hours to allow formation of a robust biofilm. The individual biofilms formed on the pegs were challenged with varying concentrations of antibiotics for 24 hours, followed by recovery of the surviving bacteria. Bacterial enumeration was performed using a Most Probable Number (MPN) assay (Sutton, Journal of Validation Technology 16 (3): 35-38, 2010, incorporated herein by reference) in a 96-well format.” for “formation.”

For series [3] the following is noted: IV; cIAI; cited from earlier work.
In a further series the test system is human plasma protein. Conditions: cited from earlier work.
For series [4] the following is noted: IV to oral transition therapy; cUTI; cited from earlier work.

`O=C(O)c1cn(C2CC2)c2cc(N3CCNCC3)c(F)cc2c1=O` [ciprofloxacin]: the “reduction in total bioburden of biofilm compared to control” value in series [1] ((approx. 15% of MIC), low inoculum) was “no reduction in the total bioburden”. Also, the “induction of biofilm formation” value in series [1] (sub-MIC doses) is “did not induce biofilm formation”. Also, in series [2] (at around MIC), the “reduction of total biofilm-associated bacteria” value is listed as “did not show activity”. For the same compound, in series [2] (at higher concentrations), the reduction in bioburden result is on record as “up to 5 log units”.

Take `CN(C)[C@@H]1C(O)=C(C(N)=O)C(=O)[C@@]2(O)C(O)=C3C(=O)c4c(O)c(NC(=O)CN5CCCC5)cc(F)c4C[C@H]3C[C@@H]12` [eravacycline]: the primary endpoint entry in series [3] is “did meet its primary endpoint”. Further, the “human plasma protein binding” value is 79.3% in the series with human plasma protein (Concentration 100 ng/mL, literature); 87.0% in the series with human plasma protein (Concentration 1,000 ng/mL, literature); 89.3% in the series with human plasma protein (Concentration 10,000 ng/mL, literature); 97.0% in the series with human plasma protein (Concentration 100,000 ng/mL, literature). Further, the “type of plasma protein binding” value with human plasma protein (binding increases with increasing drug concentrations) is reported as “atypical, non-linear protein binding”. Besides, the “human plasma protein binding, Mean” value with human plasma protein (literature) is reported as 79-97%. For the same compound, the “primary endpoint, non-inferiority compared to levofloxacin” value in series [4] is given as “failed to achieve its primary endpoint of statistical non-inferiority”.
